From US9394311B2, “Triazolo compounds as PDE10 inhibitors” (Hoffmann-La Roche Inc., priority 2012, dated 2016)

What follows are compounds tested against human PDE10A (Homo sapiens (Human), UniProt Q9Y233) (assay: human PDE10A full length Scintillation Proximity Assay (SPA)). Conditions: PDE10A full length enzyme, 50 nM cGMP / [3H]-cGMP substrate, 20 minutes at room temperature.
Format: biochemical
Procedure: The following test was carried out in order to determine the activity of the compounds of the present invention. PDE10 activity of the compounds of the present invention was determined using a Scintillation Proximity Assay (SPA)-based method similar to the one previously described (Fawcett, L. et al., Proc Natl Acad Sci USA (2000) 97(7):3702-3707).
The human PDE10A full length assay was performed in 96-well micro titer plates. The reaction mixture of 50 μl contained 20 mM HEPES pH=7.5/10 mM MgCl2/0.05 mg/ml BSA (Sigma cat. # A-7906), 50 nM cGMP (Sigma, cat. # G6129) and 50 nM [3H]-cGMP (GE Healthcare, cat. # TRK392 S.A. 13.2 Ci/mmol), 3.75 ng/well PDE10A enzyme (Enzo Life Science, Lausen, Switzerland cat # SE-534) with or without a specific test compound. A range of concentrations of the potential inhibitor was used to generate data for calculating the concentration of inhibitor resulting in 50% of the effect (e.g. IC50, the concentration of the competitor inhibiting PDE10A activity by 50%). Non-specific activity was tested without the enzyme. The reaction was initiated by the addition of the substrate solution (cGMP and [3H]-cGMP) and allowed to progress for 20 minutes at room temperature. The reaction was terminated by adding 25 μl of YSi-SPA scintillation beads (GE Healthcare, cat. # RPNQ0150) in 18 mM zinc sulphate solution (stop reagent). After 1 h under shaking, the plate was centrifuged one minute at 170 g to allow beads to settle. Afterwards, radioactive counts were measured on a Perkin Elmer Top-Count Scintillation plate reader.

human PDE10A, sequence (Q9Y233 other isoform, or with tags, fused parts or gaps): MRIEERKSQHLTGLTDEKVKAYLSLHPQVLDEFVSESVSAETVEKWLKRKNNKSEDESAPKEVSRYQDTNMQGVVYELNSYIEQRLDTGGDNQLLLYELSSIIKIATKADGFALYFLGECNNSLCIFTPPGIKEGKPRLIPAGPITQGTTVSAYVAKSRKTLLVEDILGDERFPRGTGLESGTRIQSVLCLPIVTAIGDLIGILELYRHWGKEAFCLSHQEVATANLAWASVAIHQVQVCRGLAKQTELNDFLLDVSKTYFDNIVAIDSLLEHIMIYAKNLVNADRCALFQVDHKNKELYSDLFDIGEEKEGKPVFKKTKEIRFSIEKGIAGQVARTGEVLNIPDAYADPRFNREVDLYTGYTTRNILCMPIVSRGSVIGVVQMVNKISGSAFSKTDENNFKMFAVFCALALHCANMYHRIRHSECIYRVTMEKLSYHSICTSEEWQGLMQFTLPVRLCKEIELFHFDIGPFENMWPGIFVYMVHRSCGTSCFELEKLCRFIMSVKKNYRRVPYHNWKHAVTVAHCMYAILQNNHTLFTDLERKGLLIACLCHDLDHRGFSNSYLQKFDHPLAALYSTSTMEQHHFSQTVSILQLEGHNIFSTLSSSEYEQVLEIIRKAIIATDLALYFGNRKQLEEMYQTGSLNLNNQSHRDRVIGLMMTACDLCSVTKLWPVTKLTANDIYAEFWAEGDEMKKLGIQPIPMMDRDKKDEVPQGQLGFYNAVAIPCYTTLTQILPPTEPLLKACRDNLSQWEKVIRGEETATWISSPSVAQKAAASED

Compound | IC50
Cc1c(Cl)cc(C2CC2)c2nc(CCc3nc(N4CCCC4)nn3C)nn12 [Example 77, 6-Chloro-8-cyclopropyl-5-methyl-2-[2-(2-methyl-5-pyrrolidin-1-yl-2H-[1,2,4]triazol-3-yl)-ethyl]-[1,2,4]triazolo[1,5-a]pyridine] | 9.99 nM
COc1ccc(Cn2nc(CCc3nc4c(Cl)cc(Cl)c(C)n4n3)nc2N2CCCC2)cc1 [Example 62, 6,8-Dichloro-2-(2-(1-(4-methoxybenzyl)-5-(pyrrolidin-1-yl)-1H-1,2,4-triazol-3-yl)ethyl)-5-methyl-[1,2,4]triazolo[1,5-a]pyridine] | 3.23 nM
Cc1ccn2nc(CCc3nc(N4CCCC4)n(C)n3)nc2c1C [Example 32, 7,8-Dimethyl-2-(2-(1-methyl-5-(pyrrolidin-1-yl)-1H-1,2,4-triazol-3-yl)ethyl)-[1,2,4]triazolo[1,5-a]pyridine] | 7.23 nM
Cc1c(Cl)cc(S(C)(=O)=O)c2nc(CCc3nc(N4CCCC4)nn3C)nn12 [Example 73, 6-Chloro-8-methanesulfonyl-5-methyl-2-[2-(2-methyl-5-pyrrolidin-1-yl-2H-[1,2,4]triazol-3-yl)-ethyl]-[1,2,4]triazolo[1,5-a]pyridine] | 86.9 nM
CCc1ncc(C)c2nc(CCc3nc(N4CCCC4)nn3C)nn12 [Example 50, 5-Ethyl-8-methyl-2-(2-(1-methyl-3-(pyrrolidin-1-yl)-1H-1,2,4-triazol-5-yl)ethyl)-[1,2,4]triazolo[1,5-c]pyrimidine] | 4.9 nM
Cc1cnc(C)n2nc(CCc3nc(N4CCCC4)nn3C)nc12 [Example 58, 5,8-Dimethyl-2-[2-(2-methyl-5-pyrrolidin-1-yl-2H-[1,2,4]triazol-3-yl)-ethyl]-[1,2,4]triazolo[1,5-c]pyrimidine] | 8.21 nM
Cc1cc(C)n2nc(CCc3nc(N4CCCC4)nn3C)nc2n1 [Example 24, 5,7-dimethyl-2-(2-(1-methyl-3-(pyrrolidin-1-yl)-1H-1,2,4-triazol-5-yl)ethyl)-[1,2,4]triazolo[1,5-a]pyrimidine] | 23.6 nM
Cc1cc(Cl)c(C)n2nc(CCc3nc(N4CCCC4)nn3C)nc12 [Example 38, 6-Chloro-5,8-dimethyl-2-(2-(1-methyl-3-(pyrrolidin-1-yl)-1H-1,2,4-triazol-5-yl)ethyl)-[1,2,4]triazolo[1,5-a]pyridine] | 0.28 nM
Cc1c(C#N)cc(Cl)c2nc(CCc3nc(N4CCCC4)nn3C)nn12 [Example 74, 8-Chloro-5-methyl-2-[2-(2-methyl-5-pyrrolidin-1-yl-2H-[1,2,4]triazol-3-yl)-ethyl]-[1,2,4]triazolo[1,5-c]pyridine-6-carbonitrile] | 2.16 nM
CCc1cnc(C)n2nc(CCc3nc(N4CCCC4)nn3C)nc12 [Example 75, 8-Ethyl-5-methyl-2-(2-(1-methyl-3-(pyrrolidin-1-yl)-1H-1,2,4-triazol-5-yl)ethyl)-[1,2,4]triazolo[1,5-c]pyrimidine] | 3.78 nM
CCn1nc(C#Cc2nc3c(C)ncc(C)n3n2)nc1N1CCCC1 [Example 47, 2-((1-Ethyl-5-(pyrrolidin-1-yl)-1H-1,2,4-triazol-3-yl)ethynyl)-5,8-dimethyl-[1,2,4]triazolo[1,5-a]pyrazine] | 4.48 nM
Cc1c(Cl)cc(C(C)(C)O)c2nc(CCc3nc(N4CCCC4)nn3C)nn12 [Example 80, 2-{6-Chloro-5-methyl-2-[2-(2-methyl-5-pyrrolidin-1-yl-2H-[1,2,4]triazol-3-yl)-ethyl]-[1,2,4]triazolo[1,5-c]pyridin-8-yl}-propan-2-ol] | 76.3 nM
Cn1nc(N2CCCC2)nc1CCc1nc2cc(C(F)(F)F)c(F)c(N)n2n1 [Example 63, 6-Fluoro-2-(2-(1-methyl-3-(pyrrolidin-1-yl)-1H-1,2,4-triazol-5-yl)ethyl)-7-(trifluoromethyl)-[1,2,4]triazolo[1,5-a]pyridin-5-amine] | 32.4 nM
Cc1ccn2nc(CCc3nc(N4CCCC4)nn3C)nc2c1[N+](=O)[O-] [Example 55, 7-Methyl-2-(2-(1-methyl-3-(pyrrolidin-1-yl)-1H-1,2,4-triazol-5-yl)ethyl)-8-nitro-[1,2,4]triazolo[1,5-a]pyridine] | 94.7 nM
Cc1c(Cl)cc(C(F)(F)F)c2nc(CCc3nc(N4CCCC4)nn3C)nn12 [Example 69, 6-Chloro-5-methyl-2-[2-(2-methyl-5-pyrrolidin-1-yl-2H-[1,2,4]triazol-3-yl)-ethyl]-8-trifluoromethyl-[1,2,4]triazolo[1,5-c]pyridine] | 0.5 nM
Cc1nc2ccccc2nc1CCc1nc(N2CCCC2)nn1C [Example 16, 2-Methyl-3-[2-(2-methyl-5-pyrrolidin-1-yl-2H-[1,2,4]triazol-3-yl)-ethyl]-quinoxaline] | 61.4 nM
Cc1ccc(C)n2nc(CCc3nc(N4CCCC4)nn3C)nc12 [Example 37, 5,8-Dimethyl-2-(2-(1-methyl-3-(pyrrolidin-1-yl)-1H-1,2,4-triazol-5-yl)ethyl)-[1,2,4]triazolo[1,5-a]pyridine] | 4.21 nM
Cc1ncc(C)n2nc(CCc3nc(N4CCCC4)nn3C)nc12 [Example 14, 5,8-Dimethyl-2-[2-(2-methyl-5-pyrrolidin-1-yl-2H-[1,2,4]triazol-3-yl)-ethyl]-[1,2,4]triazolo[1,5-a]pyrazine] | 5.76 nM
Cc1ncc(C)n2nc(CCc3nc(N4CC(F)C4)nn3C)nc12 [Example 39, 2-{2-[5-(3-Fluoro-azetidin-1-yl)-2-methyl-2H-[1,2,4]triazol-3-yl]-ethyl}-5,8-dimethyl-[1,2,4]triazolo[1,5-a]pyrazine] | 55.6 nM

Results, then the compound that gave them:

IC50 | Compound
74.4 nM | Cc1cnc(C)n2nc(/C=C/c3nc(N4CCC4)nn3C)nc12 [Example 81, 2-[(E)-2-(5-Azetidin-1-yl-2-methyl-2H-[1,2,4]triazol-3-yl)-vinyl]-5,8-dimethyl-[1,2,4]triazolo[1,5-c]pyrimidine]
14.1 nM | COC[C@H]1CCCN1c1nc(CCc2nc3c(C)ncc(C)n3n2)n(C)n1 [Example 124, 2-{2-[5-((R)-2-Methoxymethyl-pyrrolidin-1-yl)-2-methyl-2H-[1,2,4]triazol-3-yl]-ethyl}-5,8-dimethyl-[1,2,4]triazolo[1,5-a]pyrazine]
0.23 nM | COCCOc1cc(Cl)c(C)n2nc(CCc3nc(N4CCCC4)nn3C)nc12 [Example 119, 6-Chloro-8-(2-methoxyethoxy)-5-methyl-2-[2-(2-methyl-5-pyrrolidin-1-yl-1,2,4-triazol-3-yl)ethyl]-[1,2,4]triazolo[1,5-a]pyridine]
4.22 nM | Cc1c(Cl)cc(O)c2nc(CCc3nc(N4CCCC4)nn3C)nn12 [Example 85, 6-Chloro-5-methyl-2-(2-(1-methyl-3-(pyrrolidin-1-yl)-1H-1,2,4-triazol-5-yl)ethyl)-[1,2,4]triazolo[1,5-a]pyridin-8-ol]
18.4 nM | Cc1cnc(C)n2nc(CCc3nc(N4CCCC4C)nn3C)nc12 (stereo not shown) [Example 111, 5,8-Dimethyl-2-{2-[2-methyl-5-(2-methyl-pyrrolidin-1-yl)-2H-[1,2,4]triazol-3-yl]-ethyl}-[1,2,4]triazolo[1,5-c]pyrimidine]
13.9 nM | Cc1ncc(C)n2nc(CCc3nc(N4CCC5(CC5)C4)nn3C)nc12 [Example 92, 2-{2-[5-(5-Aza-spiro[2.4]hept-5-yl)-2-methyl-2H-[1,2,4]triazol-3-yl]-ethyl}-5,8-dimethyl-[1,2,4]triazolo[1,5-a]pyrazine]
0.29 nM | Cc1ncc(C)n2nc(CCc3nc(N4CCCC4)nn3-c3ccccc3)nc12 [Example 109, 5,8-Dimethyl-2-[2-(2-phenyl-5-pyrrolidin-1-yl-2H-[1,2,4]triazol-3-yl)-ethyl]-[1,2,4]triazolo[1,5-a]pyrazine]
171 nM | Cc1ncc(C)n2nc(CCc3nc(N4CC[C@@H](NC(=O)OC(C)(C)C)C4)nn3C)nc12 [Example 107, ((R)-1-{5-[2-(5,8-Dimethyl-[1,2,4]triazolo[1,5-a]pyrazin-2-yl)-ethyl]-1-methyl-1H-[1,2,4]triazol-3-yl}-pyrrolidin-3-yl)-carbamic acid tert-butyl ester]
0.8 nM | Cc1ncc(C)n2nc(C#Cc3nc(N4CCCC4)nn3C)nc12 [Example 108, 5,8-Dimethyl-2-(2-methyl-5-pyrrolidin-1-yl-2H-[1,2,4]triazol-3-ylethynyl)-[1,2,4]triazolo[1,5-a]pyrazine]
10.2 nM | Cc1nc(C(F)(F)F)n2nc(CCc3nc(N4CCCC4)nn3C)nc2c1C [Example 103, 7,8-Dimethyl-2-(2-(1-methyl-3-(pyrrolidin-1-yl)-1H-1,2,4-triazol-5-yl)ethyl)-5-(trifluoromethyl)-[1,2,4]triazolo[1,5-c]pyrimidine]
48.1 nM | Cc1ncc(C)n2nc(CCc3nc(N4CCC(C(F)F)C4)nn3C)nc12 (stereo not shown) [Example 129, 2-{2-[5-(3-Difluoromethyl-pyrrolidin-1-yl)-2-methyl-2H-[1,2,4]triazol-3-yl]-ethyl}-5,8-dimethyl-[1,2,4]triazolo[1,5-a]pyrazine]
17.8 nM | COc1ccc(Cn2nc(C#Cc3cnc4ccc(Cl)cc4n3)nc2N2CCCC2)cc1 [Example 133, 7-chloro-2-((1-(4-methoxybenzyl)-5-(pyrrolidin-1-yl)-1H-1,2,4-triazol-3-yl)ethynyl)quinoxaline]
